Source: patent publication US20170355708A1, “POTASSIUM CHANNEL MODULATORS” (Cadent Therapeutics, Inc., priority 2016, published 2017)

Molecular target: T1, hSK2 channels (Homo sapiens, UniProt P0DP23+Q9H2S1)
T1 construct: expressed in transfected cells; host or cells: HEK293
Assay: Whole-cell patch-clamp recording of SK2 channel current (SC100)
Assay type: cell-based
Details: Stimulating Concentration required for increasing the baseline current by 100%; HEK293 cells expressing hSK2; Table 4
Outline: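 Whole-cell patch-clamp recording of SK2 current in HEK293 cells expressing hSK2 channels. SC100 is the concentration increasing baseline current by 100%.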

SC100 (μM) | SMILES
++ (++ means 200 nM-1000 nM) | Cc1ccn(-c2nc(Nc3ccccc3Cl)cc(C(C)O)n2)n1 (stereo not shown) [IN10881-055-P1]
++ (++ means 200 nM-1000 nM) | Cc1ccn(-c2nc(Nc3ccc(F)cc3)cc(C(C)O)n2)n1 (stereo not shown) [IN10882-054-P1]
+ (+ means >1 uM) | Cc1cc(C)n(-c2cc(C(C)O)cc(Nc3ccc(F)cc3)n2)n1 (stereo not shown) [IN10964-084-P1, 1-(2-(3,5-dimethyl-1H-pyrazol-1-yl)-6-((4-fluorophenyl)amino)pyridin-4-yl)ethan-1-ol]
++ (++ means 200 nM-1000 nM) | COc1cc(Nc2ccc(F)cc2F)nc(-c2nc(C)cs2)n1 [IN11059-023-P1]
++ (++ means 200 nM-1000 nM) | COc1cc(Nc2ccc(F)cc2)nc(-c2nc(C)cs2)n1 [IN11059-059-P1]
+ (+ means >1 uM) | COC(C)c1cc(Nc2ccc(F)cc2F)nc(-c2nc(C)cs2)n1 (stereo not shown) [IN11059-067-P1, N-(2,4-difluorophenyl)-6-(1-methoxyethyl)-2-(4-methylthiazol-2-yl) pyrimidin-4-amine]
+ (+ means >1 uM) | Cc1cc(Nc2ccc(F)cc2)nc(-c2ccccn2)n1 [IN11121-037-P1, N-(4-fluorophenyl)-6-methyl-2-(pyridin-2-yl)pyrimidin-4-amine]
+ (+ means >1 uM) | Cc1cccc(-c2nccc(Nc3ccc(F)cc3)n2)n1 [IN11130-036-P1]
+ (+ means >1 uM) | Fc1ccc(Nc2ccnc(-n3ccc(C4CC4)n3)n2)cc1 [IN11166-018-P1, 2-(3-cyclopropyl-1H-pyrazol-1-yl)-N-(4-fluorophenyl) pyrimidin-4-amine]
+ (+ means >1 uM) | Cc1cc(Nc2ccc(F)cc2)nc(-c2ccc(C)[nH]2)n1 [IN11196-053-P1, N-(4-fluorophenyl)-6-methyl-2-(5-methyl-1H-pyrrol-2-yl)pyrimidin-4-amine]
+ (+ means >1 uM) | Cc1cc(Nc2ccc(F)cc2)nc(-c2nc(C)ccc2C)n1 [IN11237-001-P1, 2-(3,6-dimethylpyridin-2-yl)-N-(4-fluorophenyl)-6-methylpyrimidin-4-amine]
+++ (+++ means <200 nM) | CC1(O)CN(c2cc(Nc3ccc(F)cc3)nc(-n3ccc(CF)n3)c2)C1 [NSSy5632]
+++ (+++ means <200 nM) | Cc1ccn(-c2cc(CN3CCCC3=O)cc(Nc3ccc(Cl)cc3)n2)n1 [NSSy5701, 1-((2-((4-chlorophenyl)amino)-6-(3-methyl-1H-pyrazol-1-yl)pyridin-4-yl)methyl) pyrrolidin-2-one]
+ (+ means >1 uM) | CN(C)C1CN(c2cc(Nc3ccc(F)cc3)nc(-n3ccc(CF)n3)c2)C1 [NSSy5713]
++ (++ means 200 nM-1000 nM) | Cc1ccn(-c2cc(CO)cc(Nc3ccc(F)cc3F)n2)n1 [NSSy6773, (2-((2,4-difluorophenyl)amino)-6-(3-methyl-1H-pyrazol-1-yl)pyridin-4-yl) methanol]
++ (++ means 200 nM-1000 nM) | Cc1cccc(-c2nc(Nc3ccc(F)cc3)cc(N3CCOCC3)n2)n1 [NSSy6907, N-(4-fluorophenyl)-2-(6-methylpyridin-2-yl)-6-morpholinopyrimidin-4-amine]
+ (+ means >1 uM) | COc1cc(Nc2ccc(F)cc2)nc(-c2cccc(C)n2)n1 [NSSy6908]
+ (+ means >1 uM) | Cc1cc(Nc2ccc(F)cc2)nc(-n2ccc(C3CC3)n2)n1 [NSSy6921, 2-(3-cyclopropyl-1H-pyrazol-1-yl)-N-(4-fluorophenyl)-6-methylpyrimidin-4-amine]

SMILES | SC100 (μM)
Cc1csc(-c2nc(Nc3ccc(F)cc3)cc(C(C)O)n2)n1 (stereo not shown) [IN10880-091-P1, 1-(6-((4-fluorophenyl)amino)-2-(4-methylthiazol-2-yl)pyrimidin-4-yl)ethan-1-ol] | ++ (++ means 200 nM-1000 nM)
Cc1csc(-c2nc(Nc3cccc(C(F)(F)F)c3)cc(C(C)O)n2)n1 (stereo not shown) [IN10880-092-P1] | ++ (++ means 200 nM-1000 nM)
Cc1cc(C)n(-c2nc(Nc3ccc(F)cc3)cc(C(C)O)n2)n1 (stereo not shown) [IN10973-006-P1] | ++ (++ means 200 nM-1000 nM)
Cc1cc(C)n(-c2nc(Nc3cccc(C(F)(F)F)c3)cc(C(C)O)n2)n1 (stereo not shown) [IN10973-007-P1] | +++ (+++ means <200 nM)
